Patent publication US11912703B2, “6-azaindole compounds” (BRISTOL-MYERS SQUIBB COMPANY, priority 2017, dated 2024)
pIC50: −log10 of the molar value. Read-outs that look alike come from different tables or passages of the source.

Assays:
human TLR8 = human TLR8 (Homo sapiens (Human), UniProt Q9NR97); assay: TLR8 inhibition reporter assay (HEK-Blue SEAP);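 further: SEAP driven by IFN-β minimal promoter with five NF-κB and AP-1 sites, compounds tested 0.05 nM to 50 µM, 22 h incubation, inhibition relative to agonist plus DMSO wells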
Chain of human TLR8 (Q9NR97 27-1041): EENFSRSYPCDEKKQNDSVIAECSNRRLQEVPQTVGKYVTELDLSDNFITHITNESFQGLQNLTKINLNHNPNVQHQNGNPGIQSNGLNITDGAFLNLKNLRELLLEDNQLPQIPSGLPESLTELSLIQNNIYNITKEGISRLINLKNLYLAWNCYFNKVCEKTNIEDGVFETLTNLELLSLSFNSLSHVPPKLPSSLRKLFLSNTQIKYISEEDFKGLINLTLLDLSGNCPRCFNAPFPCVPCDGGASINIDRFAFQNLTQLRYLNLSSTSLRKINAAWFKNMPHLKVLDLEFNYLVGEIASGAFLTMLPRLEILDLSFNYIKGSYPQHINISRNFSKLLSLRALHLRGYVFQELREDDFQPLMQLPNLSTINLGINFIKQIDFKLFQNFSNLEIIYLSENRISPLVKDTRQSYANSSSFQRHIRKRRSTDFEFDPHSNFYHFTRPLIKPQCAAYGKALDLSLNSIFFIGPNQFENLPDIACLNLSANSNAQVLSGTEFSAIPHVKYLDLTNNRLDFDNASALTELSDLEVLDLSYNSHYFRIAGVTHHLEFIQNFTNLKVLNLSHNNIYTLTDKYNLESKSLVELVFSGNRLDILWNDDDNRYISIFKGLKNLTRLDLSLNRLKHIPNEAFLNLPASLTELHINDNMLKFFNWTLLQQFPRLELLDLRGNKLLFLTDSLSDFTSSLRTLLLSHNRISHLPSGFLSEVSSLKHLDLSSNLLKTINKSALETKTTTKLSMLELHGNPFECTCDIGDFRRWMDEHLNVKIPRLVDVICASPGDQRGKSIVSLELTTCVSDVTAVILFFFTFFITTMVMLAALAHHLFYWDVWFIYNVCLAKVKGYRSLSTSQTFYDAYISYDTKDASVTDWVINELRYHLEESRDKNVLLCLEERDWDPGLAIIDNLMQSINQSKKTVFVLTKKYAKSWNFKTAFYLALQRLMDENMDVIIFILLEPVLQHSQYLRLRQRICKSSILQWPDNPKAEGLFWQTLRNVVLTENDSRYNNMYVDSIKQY

human TLR7 = human TLR7 (Homo sapiens (Human), UniProt Q9NYK1); assay: TLR7 inhibition reporter assay (HEK-Blue SEAP); assay type: cell-based; conditions: HEK-Blue cells overexpressing human TLR7, gardiquimod 7.5 μM stimulation
Chain of human TLR7 (Q9NYK1 27-1049): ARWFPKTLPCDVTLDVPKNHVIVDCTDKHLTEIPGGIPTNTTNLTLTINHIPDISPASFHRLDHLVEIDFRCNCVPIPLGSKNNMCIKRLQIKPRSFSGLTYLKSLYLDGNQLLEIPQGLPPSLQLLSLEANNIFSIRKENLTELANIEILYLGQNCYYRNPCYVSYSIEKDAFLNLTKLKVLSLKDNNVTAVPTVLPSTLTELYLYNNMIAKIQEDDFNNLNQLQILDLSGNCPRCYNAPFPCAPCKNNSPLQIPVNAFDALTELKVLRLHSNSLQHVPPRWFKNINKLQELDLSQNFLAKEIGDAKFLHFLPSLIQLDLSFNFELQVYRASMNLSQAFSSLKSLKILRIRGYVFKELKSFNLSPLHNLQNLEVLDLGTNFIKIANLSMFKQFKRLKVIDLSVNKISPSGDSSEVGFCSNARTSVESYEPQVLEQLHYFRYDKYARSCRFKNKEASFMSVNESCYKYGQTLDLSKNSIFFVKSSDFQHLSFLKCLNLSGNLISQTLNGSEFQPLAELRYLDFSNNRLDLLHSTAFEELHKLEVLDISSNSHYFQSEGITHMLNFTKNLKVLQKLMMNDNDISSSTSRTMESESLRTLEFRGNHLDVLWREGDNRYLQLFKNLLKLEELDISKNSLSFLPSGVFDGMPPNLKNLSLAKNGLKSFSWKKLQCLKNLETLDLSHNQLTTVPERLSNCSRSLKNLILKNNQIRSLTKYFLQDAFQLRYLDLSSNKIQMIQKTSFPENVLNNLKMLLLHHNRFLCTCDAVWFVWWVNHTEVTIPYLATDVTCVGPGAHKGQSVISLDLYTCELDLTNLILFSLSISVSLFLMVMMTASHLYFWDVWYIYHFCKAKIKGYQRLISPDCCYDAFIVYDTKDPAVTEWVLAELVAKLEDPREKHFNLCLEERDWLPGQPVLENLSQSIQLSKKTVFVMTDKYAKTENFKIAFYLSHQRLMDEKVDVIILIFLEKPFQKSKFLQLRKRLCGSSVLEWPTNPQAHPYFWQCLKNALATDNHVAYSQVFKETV

human TLR9 = human TLR9 (Homo sapiens (Human), UniProt Q9NR96); assay: TLR9 inhibition reporter assay (HEK-Blue SEAP);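 further: SEAP driven by IFN-β minimal promoter carrying five NF-κB and AP-1 sites, 22 h at 37 °C, compounds 0.05 nM–50 µM, inhibition scaled between agonist-plus-DMSO and reference-inhibitor wells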
Chain of human TLR9 (Q9NR96 26-1032): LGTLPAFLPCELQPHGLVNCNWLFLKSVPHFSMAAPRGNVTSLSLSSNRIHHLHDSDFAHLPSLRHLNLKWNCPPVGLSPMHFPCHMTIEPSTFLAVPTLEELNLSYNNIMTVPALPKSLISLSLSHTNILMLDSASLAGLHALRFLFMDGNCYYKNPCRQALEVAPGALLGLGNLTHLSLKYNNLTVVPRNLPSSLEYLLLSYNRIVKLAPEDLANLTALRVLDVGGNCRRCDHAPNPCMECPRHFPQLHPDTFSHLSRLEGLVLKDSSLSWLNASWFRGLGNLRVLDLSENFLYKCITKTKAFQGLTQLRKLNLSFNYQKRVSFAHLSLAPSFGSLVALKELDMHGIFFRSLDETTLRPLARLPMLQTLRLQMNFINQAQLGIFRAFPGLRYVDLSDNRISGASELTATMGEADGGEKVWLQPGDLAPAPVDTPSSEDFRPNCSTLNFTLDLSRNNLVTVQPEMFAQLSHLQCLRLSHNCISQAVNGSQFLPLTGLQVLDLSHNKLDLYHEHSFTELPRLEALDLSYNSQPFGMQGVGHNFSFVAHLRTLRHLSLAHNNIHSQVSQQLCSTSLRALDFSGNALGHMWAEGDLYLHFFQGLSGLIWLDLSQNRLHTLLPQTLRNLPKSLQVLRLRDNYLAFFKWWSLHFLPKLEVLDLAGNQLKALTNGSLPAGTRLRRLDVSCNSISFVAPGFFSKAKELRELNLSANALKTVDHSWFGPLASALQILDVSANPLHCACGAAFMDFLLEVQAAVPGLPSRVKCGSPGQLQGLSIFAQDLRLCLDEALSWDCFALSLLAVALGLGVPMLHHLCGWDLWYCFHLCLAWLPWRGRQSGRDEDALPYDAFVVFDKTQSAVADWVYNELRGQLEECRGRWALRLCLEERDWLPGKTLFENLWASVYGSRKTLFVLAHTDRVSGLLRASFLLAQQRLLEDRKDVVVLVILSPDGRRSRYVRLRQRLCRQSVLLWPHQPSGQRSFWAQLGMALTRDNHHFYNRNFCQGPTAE

[1] = read-out: TLR8 IC50; HEK-Blue cells overexpressing human TLR8, R848 15.9 μM stimulation, SEAP reporter
[2] = read-out: TLR9 IC50; HEK-Blue cells overexpressing human TLR9, ODN2006 5 nM stimulation, SEAP reporter
[3] = read-out: TLR8 IC50; HEK-Blue cells overexpressing human TLR8; R848 15.9 μM stimulation; SEAP reporter
[4] = read-out: TLR9 IC50; HEK-Blue cells overexpressing human TLR9; ODN2006 5 nM stimulation; SEAP reporter

pIC50 (human TLR8; [1]) | pIC50 (human TLR7) | pIC50 (human TLR9; [2]) | pIC50 (human TLR8; [3]) | pIC50 (human TLR9; [4]) | SMILES
8.89 | 8.89 | 6.11 |  |  | CCN(C)C1CCN(c2ncc3[nH]c(-c4cn5ncnc5c(C)c4C)c(C(C)C)c3c2C)CC1 [Example 55]
7.64 | 7.22 | 6.16 |  |  | Cc1c(-c2[nH]c3cnc(C4CCC(NCC(C)(C)C)CC4)c(C)c3c2C(C)C)cn2ncnc2c1C (stereo not shown) [Example 58]
 | 8.59 |  | 8.24 | 6.10 | COc1cc(-c2[nH]c3cnc(N4CCN(C5CCN(C(C)C)CC5)C[C@H]4C)c(F)c3c2C(C)C)cn2ncnc12 [Example 451]
8.34 | 8.62 | 6.53 |  |  | COc1cc(-c2[nH]c3cnc(C4CCC(N5CC6(COC6)C5)CC4)c(F)c3c2C(C)C)cn2ncnc12 (stereo not shown) [Example 161]
7.85 | 8.80 | 6.40 |  |  | CNC(=O)CN1CCC(c2ncc3[nH]c(-c4cc(OC)c5ncnn5c4)c(C(C)C)c3c2C)CC1 [Example 2, 2-(4-(3-isopropyl-2-(8-methoxy-[1,2,4]triazolo[1,5-a]pyridin-6-yl)-4-methyl-1H-pyrrolo[2,3-c]pyridin-5-yl)piperidin-1-yl)-N-methylacetamide]
8.27 | 8.48 | 6.88 |  |  | COc1cc(-c2[nH]c3cnc(C4CCN(CC(C)(C)O)CC4)cc3c2C(C)C)cn2ncnc12 [Example 296]
 | 8.60 |  | 8.92 | 4.77 | Cc1c(-c2[nH]c3cnc(N4CCN(C5CCC5)C[C@H]4C)c(F)c3c2C(C)C)cn2ncnc2c1C [Example 458]
9.57 | 8.23 | 5.21 |  |  | Cc1c(-c2[nH]c3cnc(N4CCN(CC5CC5)CC4)c(F)c3c2C(C)C)cn2ncnc2c1C [Example 430]
8.42 | 8.44 | < 4.30 |  |  | COc1cc(-c2[nH]c3cnc(N4CCN(CC(N)=O)CC4)c(F)c3c2C(C)C)cn2ncnc12 [Example 358]
9.46 | 9.11 | 5.22 |  |  | Cc1cc(-c2[nH]c3cnc(N4CCC(NCC(C)(C)O)CC4)c(F)c3c2C(C)C)cn2ncnc12 [Example 258]
9.41 | 8.20 | 4.75 |  |  | COCCN1CCN(c2ncc3[nH]c(-c4cn5ncnc5c(C)c4C)c(C(C)C)c3c2F)CC1 [Example 424]
9.18 | 8.92 | 5.38 |  |  | COc1cc(-c2[nH]c3cnc(N4CCC(N(C)C(C)C)CC4)c(F)c3c2C(C)C)cn2ncnc12 [Example 101]
8.21 | 8.68 | 6.88 |  |  | Cc1c(-c2[nH]c3cnc(C4CCN(CC(=O)N(C)C)CC4)cc3c2C(C)C)cn2ncnc2c1C [Example 31]
8.96 | 9.18 | 6.03 | 8.96 | 6.03 | Cc1c(N2CCC(NC(C)C)CC2)ncc2[nH]c(-c3cc(C)c4ncnn4c3)c(C(C)C)c12 [Example 236]
7.70 | 8.52 | 6.55 |  |  | COc1cc(-c2[nH]c3cnc(C4CCC(N5CCC5)CC4)cc3c2C(C)C)cn2ncnc12 (stereo not shown) [Example 324]
6.72 | 7.55 | 6.66 |  |  | COc1cc(-c2[nH]c3cnc(C4CCN(C(=O)CN(C)C)CC4)cc3c2C(C)C)cn2ncnc12 [Example 343]
7.46 | 7.55 | 6.46 |  |  | Cc1c(-c2[nH]c3cnc(C4CCC(NC(C)C)CC4)c(C)c3c2C(C)C)cn2ncnc2c1C (stereo not shown) [Example 61]
9.64 | 8.68 | 5.84 |  |  | COc1cc(-c2[nH]c3cnc(N4CCC(NCC5(C)COC5)CC4)cc3c2C(C)C)cn2ncnc12 [Example 322]
8.55 | 8.77 | 6.81 |  |  | Cc1c(-c2[nH]c3cnc(C4CCN(C(C)C)CC4)cc3c2C(C)C)cn2ncnc2c1C [Example 35]

pIC50 (human TLR8; [1]) | pIC50 (human TLR7) | pIC50 (human TLR9; [2]) | pIC50 (human TLR8; [3]) | pIC50 (human TLR9; [4]) | SMILES
8.10 | 8.72 | 5.73 |  |  | Cc1cc(-c2[nH]c3cnc(C4CCNCC4)c(F)c3c2C(C)C)cn2ncnc12 [Example 184]
8.11 | 8.21 | 5.81 |  |  | Cc1cc(-c2[nH]c3cnc(C4CCN(C(=O)CN(C)C)CC4)c(F)c3c2C(C)C)cc(C)n1 [Example 185]
8.40 | 7.49 | 5.24 |  |  | Cc1c(-c2[nH]c3cnc(N4CC5(CN(CC6CCC6)C5)C4)c(F)c3c2C(C)C)cn2ncnc2c1C [Example 404]
 | 7.37 |  | 7.30 | < 4.30 | Cc1c(-c2[nH]c3cnc(N4CCN(CC(F)(F)F)C[C@H]4C)c(F)c3c2C(C)C)cn2ncnc2c1C [Example 468]
8.59 | 8.59 | 4.80 |  |  | Cc1c(-c2[nH]c3cnc(C4CCC(NC56CC(C5)C6)CC4)c(F)c3c2C(C)C)cn2ncnc2c1C (stereo not shown) [Example 239]
8.47 | 8.49 | 5.32 |  |  | Cc1cc(-c2[nH]c3cnc(C4CCN(CC5(C)COC5)CC4)c(F)c3c2C(C)C)cn2ncnc12 [Example 250]
 | 8.38 |  | 8.43 | 5.70 | Cc1cc(-c2[nH]c3cnc(C4CCN(CC5(C)COC5)CC4)c(F)c3c2C(C)C)cc(C)n1 [Example 215]
7.74 | 7.80 | 6.49 |  |  | COc1cc(-c2[nH]c3cnc(C4CCC(NC5CCOCC5)CC4)c(C)c3c2C(C)C)cn2ncnc12 (stereo not shown) [Example 176]
7.96 | 8.04 | 5.24 |  |  | COc1cc(-c2[nH]c3cnc(N4CCC(NCC5(C)COC5)CC4)c(F)c3c2C(C)C)cn2ncnc12 [Example 67]
9.02 | 8.80 | 5.68 | 9.02 | 5.68 | Cc1c(-c2[nH]c3cnc(N4CCC(NC5COC5)CC4)c(C)c3c2C(C)C)cn2ncnc2c1C [Example 237]
6.08 | 7.33 | 4.45 |  |  | Cc1c(-c2[nH]c3cnc(N4CC5(CN(C)C5)C4)c(F)c3c2C(C)C)cn2ncnc2c1C [Example 407]
9.21 | 9.34 | 5.62 |  |  | Cc1cc(-c2[nH]c3cnc(C4CCC(NCC(C)(C)O)CC4)c(F)c3c2C(C)C)cn2ncnc12 (stereo not shown) [Example 49]
7.82 | 7.34 | 4.77 |  |  | Cc1c(-c2[nH]c3cnc(N4CC5(CN(CC6(C)COC6)C5)C4)c(F)c3c2C(C)C)cn2ncnc2c1C [Example 405]
8.89 | 7.82 | < 4.30 |  |  | Cc1c(-c2[nH]c3cnc(N4CCN(CC5(C)COC5)CC4)c(F)c3c2C(C)C)cn2ncnc2c1C [Example 410]
7.12 | 7.85 | 6.34 |  |  | COc1cc(-c2[nH]c3cnc(C4CCN(CC(=O)N(C)C)CC4)cc3c2C(C)C)cn2ncnc12 [Example 298]
8.35 | 8.44 | 4.76 |  |  | Cc1c(-c2[nH]c3cnc(C4CCC(N(C)C(C)C)CC4)c(F)c3c2C(C)C)cn2ncnc2c1C (stereo not shown) [Example 168]
8.70 | 8.64 | 7.15 |  |  | Cc1c(-c2[nH]c3cnc(C4CCC(NC5CCOCC5)CC4)c(C)c3c2C(C)C)cn2ncnc2c1C (stereo not shown) [Example 120]
7.60 | 7.57 | 6.32 |  |  | COc1cc(-c2[nH]c3cnc(C4CCC(N5CC6(COC6)C5)C4)cc3c2C(C)C)cn2ncnc12 (stereo not shown) [Example 141]
